# According to patent US20100160351A1, “PHARMACEUTICAL COMPOSITIONS AND METHODS FOR TREATING HYPERURICEMIA AND RELATED DISORDERS” (NUON THERAPEUTICS, INC., priority 2008, published 2010):
# Tested on: serum uric acid (sUA) levels in hyperuricemic patients
# Test: PRESTO study: change in serum uric acid in hyperuricemic patients (baseline >=8 mg/dL), Tranilast twice daily for 1 or 3 months
# Assay type: in vivo, human
# Experimental: The PRESTO (Prevention of Restenosis with Tranilast and its Outcomes) study was a multicenter study of ˜11,500 patients undergoing percutaneous transluminal coronary revascularization (PTCR) with or without stenting for single or multiple vessels over a 9-month period. The study compared the composite clinical event rate of death, myocardial infarction, or need for ischemia-driven target vessel revascularization in patients treated with Tranilast (300 and 450 mg twice daily) for 1 or 3 months versus placebo. Description of the study protocol and patient population can be found in Holmes et al., The PRESTO (Prevention of Restenosis with Tranilast and its Outcomes) protocol: A double-blind, placebo-controlled trial, Am Heart J 2000; 139:23-31; and Holmes et al., Results of Prevention of REStenosis with Tranilast and its Outcomes (PRESTO) Trial, Circulation. 2002; 106:1243, both of which are incorporated by reference herein in their entirety.
# Gout was a contraindication for patient enrollment in the PRESTO trial. Nevertheless, 1100 patients enrolled in the trial were identified with baseline hyperuricemia defined as initial serum uric acid (sUA) levels greater than or equal to 7 mg/dL. Of these, approximately 300 participants had baseline serum uric acid levels greater than or equal to 8 mg/dL. […] As indicated in FIG. 1 and Table 4, some patients were treated with placebo, some patients were treated with Tranilast for 4 weeks followed by placebo, and some patients were treated with Tranilast for 12 weeks.
# [1] = 1M TRAN 300 mg/2M PLACEBO, Follow-Up
# [2] = 1M TRAN 300 mg/2M PLACEBO, Post-PTCR
# [3] = 1M TRAN 300 mg/2M PLACEBO, Week 1
# [4] = 1M TRAN 300 mg/2M PLACEBO, Week 2
# [5] = 1M TRAN 300 mg/2M PLACEBO, Week 3
# [6] = 1M TRAN 300 mg/2M PLACEBO, Week 4
# [7] = 1M TRAN 300 mg/2M PLACEBO, Week 6
# [8] = 1M TRAN 300 mg/2M PLACEBO, Week 8
# [9] = 1M TRAN 300 mg/2M PLACEBO, Week 10
# [10] = 1M TRAN 300 mg/2M PLACEBO, Week 12
# [11] = 1M TRAN 450 mg/2M PLACEBO, Follow-Up
# [12] = 1M TRAN 450 mg/2M PLACEBO, Post-PTCR
# [13] = 1M TRAN 450 mg/2M PLACEBO, Week 1
# [14] = 1M TRAN 450 mg/2M PLACEBO, Week 2
# [15] = 1M TRAN 450 mg/2M PLACEBO, Week 3
# [16] = 1M TRAN 450 mg/2M PLACEBO, Week 4
# [17] = 1M TRAN 450 mg/2M PLACEBO, Week 6
# [18] = 1M TRAN 450 mg/2M PLACEBO, Week 8
# [19] = 1M TRAN 450 mg/2M PLACEBO, Week 10
# [20] = 1M TRAN 450 mg/2M PLACEBO, Week 12
compound,measurement,setting,value
"COc1ccc(/C=C/C(=O)Nc2ccccc2C(=O)O)cc1OC [Tranilast, 2-[[3-(3,4-dimethoxyphenyl)-1-oxo-2-propenyl]amino]benzoic acid]","Change from Baseline in Uric Acid, Max",[1],2.00 mg/dL
same,"Change from Baseline in Uric Acid, Mean (SD)",[1],−0.64 (1.351) mg/dL
same,"Change from Baseline in Uric Acid, Median",[1],-0.86 mg/dL
same,"Change from Baseline in Uric Acid, Min",[1],-3.30 mg/dL
same,"Change from Baseline in Uric Acid, Max",[2],2.03 mg/dL
same,"Change from Baseline in Uric Acid, Mean (SD)",[2],−1.33 (1.220) mg/dL
same,"Change from Baseline in Uric Acid, Median",[2],-1.30 mg/dL
same,"Change from Baseline in Uric Acid, Min",[2],-4.54 mg/dL
same,"Change from Baseline in Uric Acid, Max",[3],2.70 mg/dL
same,"Change from Baseline in Uric Acid, Mean (SD)",[3],−2.31 (1.839) mg/dL
same,"Change from Baseline in Uric Acid, Median",[3],-2.51 mg/dL
same,"Change from Baseline in Uric Acid, Min",[3],-6.05 mg/dL
same,"Change from Baseline in Uric Acid, Max",[4],1.80 mg/dL
same,"Change from Baseline in Uric Acid, Mean (SD)",[4],−2.61 (2.149) mg/dL
same,"Change from Baseline in Uric Acid, Median",[4],-3.00 mg/dL
same,"Change from Baseline in Uric Acid, Min",[4],-7.05 mg/dL
same,"Change from Baseline in Uric Acid, Max",[5],3.50 mg/dL
same,"Change from Baseline in Uric Acid, Mean (SD)",[5],−2.43 (2.143) mg/dL
same,"Change from Baseline in Uric Acid, Median",[5],-2.70 mg/dL
same,"Change from Baseline in Uric Acid, Min",[5],-6.61 mg/dL
same,"Change from Baseline in Uric Acid, Max",[6],2.60 mg/dL
same,"Change from Baseline in Uric Acid, Mean (SD)",[6],−2.30 (1.953) mg/dL
same,"Change from Baseline in Uric Acid, Median",[6],-2.40 mg/dL
same,"Change from Baseline in Uric Acid, Min",[6],-7.40 mg/dL
same,"Change from Baseline in Uric Acid, Max",[7],2.40 mg/dL
same,"Change from Baseline in Uric Acid, Mean (SD)",[7],−0.82 (1.416) mg/dL
same,"Change from Baseline in Uric Acid, Median",[7],-0.70 mg/dL
same,"Change from Baseline in Uric Acid, Min",[7],-5.21 mg/dL
same,"Change from Baseline in Uric Acid, Max",[8],1.55 mg/dL
same,"Change from Baseline in Uric Acid, Mean (SD)",[8],−0.63 (1.371) mg/dL
same,"Change from Baseline in Uric Acid, Median",[8],-0.70 mg/dL
same,"Change from Baseline in Uric Acid, Min",[8],-4.54 mg/dL
same,"Change from Baseline in Uric Acid, Max",[9],2.10 mg/dL
same,"Change from Baseline in Uric Acid, Mean (SD)",[9],−0.79 (1.195) mg/dL
same,"Change from Baseline in Uric Acid, Median",[9],-0.83 mg/dL
same,"Change from Baseline in Uric Acid, Min",[9],-3.53 mg/dL
same,"Change from Baseline in Uric Acid, Max",[10],1.50 mg/dL
same,"Change from Baseline in Uric Acid, Mean (SD)",[10],−0.75 (1.500) mg/dL
same,"Change from Baseline in Uric Acid, Median",[10],-0.52 mg/dL
same,"Change from Baseline in Uric Acid, Min",[10],-4.90 mg/dL
same,"Change from Baseline in Uric Acid, Max",[11],1.20 mg/dL
same,"Change from Baseline in Uric Acid, Mean (SD)",[11],−0.53 (1.249) mg/dL
same,"Change from Baseline in Uric Acid, Median",[11],-0.40 mg/dL
same,"Change from Baseline in Uric Acid, Min",[11],-4.40 mg/dL
same,"Change from Baseline in Uric Acid, Max",[12],0.70 mg/dL
same,"Change from Baseline in Uric Acid, Mean (SD)",[12],−2.00 (1.454) mg/dL
same,"Change from Baseline in Uric Acid, Median",[12],-1.96 mg/dL
same,"Change from Baseline in Uric Acid, Min",[12],-5.21 mg/dL
same,"Change from Baseline in Uric Acid, Max",[13],2.00 mg/dL
same,"Change from Baseline in Uric Acid, Mean (SD)",[13],−3.66 (1.902) mg/dL
same,"Change from Baseline in Uric Acid, Median",[13],-3.95 mg/dL
same,"Change from Baseline in Uric Acid, Min",[13],-8.00 mg/dL
same,"Change from Baseline in Uric Acid, Max",[14],1.00 mg/dL
same,"Change from Baseline in Uric Acid, Mean (SD)",[14],−3.43 (2.176) mg/dL
same,"Change from Baseline in Uric Acid, Median",[14],-3.50 mg/dL
same,"Change from Baseline in Uric Acid, Min",[14],-8.40 mg/dL
same,"Change from Baseline in Uric Acid, Max",[15],-0.70 mg/dL
same,"Change from Baseline in Uric Acid, Mean (SD)",[15],−4.19 (1.978) mg/dL
same,"Change from Baseline in Uric Acid, Median",[15],-4.27 mg/dL
same,"Change from Baseline in Uric Acid, Min",[15],-7.90 mg/dL
same,"Change from Baseline in Uric Acid, Max",[16],1.00 mg/dL
same,"Change from Baseline in Uric Acid, Mean (SD)",[16],−3.52 (2.127) mg/dL
same,"Change from Baseline in Uric Acid, Median",[16],-4.03 mg/dL
same,"Change from Baseline in Uric Acid, Min",[16],-7.65 mg/dL
same,"Change from Baseline in Uric Acid, Max",[17],2.50 mg/dL
same,"Change from Baseline in Uric Acid, Mean (SD)",[17],−0.29 (1.188) mg/dL
same,"Change from Baseline in Uric Acid, Median",[17],-0.30 mg/dL
same,"Change from Baseline in Uric Acid, Min",[17],-3.20 mg/dL
same,"Change from Baseline in Uric Acid, Max",[18],3.60 mg/dL
same,"Change from Baseline in Uric Acid, Mean (SD)",[18],−0.49 (2.142) mg/dL
same,"Change from Baseline in Uric Acid, Median",[18],-0.10 mg/dL
same,"Change from Baseline in Uric Acid, Min",[18],-9.70 mg/dL
same,"Change from Baseline in Uric Acid, Max",[19],4.60 mg/dL
same,"Change from Baseline in Uric Acid, Mean (SD)",[19],−0.46 (1.494) mg/dL
same,"Change from Baseline in Uric Acid, Median",[19],-0.38 mg/dL
same,"Change from Baseline in Uric Acid, Min",[19],-4.40 mg/dL
same,"Change from Baseline in Uric Acid, Max",[20],2.70 mg/dL
same,"Change from Baseline in Uric Acid, Mean (SD)",[20],−0.56 (1.298) mg/dL
same,"Change from Baseline in Uric Acid, Median",[20],-0.34 mg/dL
same,"Change from Baseline in Uric Acid, Min",[20],-3.50 mg/dL
